Patent US6214340A, “Physiologically active substance sulphostin, process for producing the same, and use thereof” (Zaidan Hojin Biseibutsu Kagaku Kenkyu Kai, priority 1997, dated 2001)

Experiment: Solubility (physicochemical properties)
Excerpt: The physicochemical properties of the thus obtained physiologically active substance sulphostin are shown below.
4) Solubility: soluble in water and insoluble in lower alcohol, acetone, ethyl acetate, hexane and petroleum ether.

NC1CCCN(P(N)(=O)NS(=O)(=O)O)C1=O (centres unmarked) [sulphostin]
Solubility (in lower alcohol, acetone, ethyl acetate, hexane and petroleum ether): insoluble
Solubility (in water): soluble
